From patent publication US6486098B1, “Herbicidal phenoxypropionic acid N-alkyl-N-2-fluorophenyl amide compounds” (Dongbu Hannong Chemical Co. Ltd., priority 1999, dated 2002)
Several values for one entry are separate records, joined by “and”; a condition that tells them apart may be missing. Equal values may be shown once.

Assays:
DIGSA (Large crabgrass) = experiment: Leaf treatment test, large crabgrass; type: in vivo, Digitaria Sanguinalis (L.) SCOP; details: 14 days after treatment
Description: (§1) Seeds of rice, wheat, barley, corn, cotton, barnyard grass, common sorgum, large crabgrass and fall panicum were seeded at a pot with a surface area of 600 cm^2. […] 14 days after the treatment, the degree of damage to the plants was rated in % damage in comparison to the development of untreated control.

rice = experiment: Leaf treatment test, 4 leaves, rice (Table 7); type: in vivo, Oryza sativa L. cv. Dongjin
Description: as §1
(§2) Among the compounds of the formula (1), herbicidal activity of the compounds in table 5 is represented in the following table 6 and 7.

PANDI (Fall panicum) = experiment: Leaf treatment test, fall panicum; type: in vivo, Panicum dichotomiflorum Michx; details: 14 days after treatment
Description: as §1

GOSHI (Cotton) = experiment: Leaf treatment test, cotton; type: in vivo, Gossypium; details: 14 days after treatment
Description: as §1

TRZAW (Wheat) = experiment: Leaf treatment test, wheat; type: in vivo, Triticum aestivum L.; details: 14 days after treatment
Description: as §1

ECHCG (Barnyard grass) = experiment: Leaf treatment test, barnyard grass; type: in vivo, Echinochloa crus-galli Beauv. var. caudata Kitagawa; details: leaf treatment at three leaves, 14 days after treatment
Description: as §1

Barnyard grass = experiment: Leaf treatment test, 4 leaves, barnyard grass (Table 7); type: in vivo, Echinochloa crus-galli Beauv. var. caudata Kitagawa
Description: as §1, §2

ORYSA (Rice) = experiment: Leaf treatment test, rice; type: in vivo, Oryza sativa L. cv. Dongjin; details: 14 days after treatment
Description: as §1

GLXMA (Soy bean) = experiment: Leaf treatment test, soy bean; type: in vivo, Glycine max (L.) MERR; details: 14 days after treatment
SORBI (Common sorgum) = experiment: Leaf treatment test, common sorgum; type: in vivo, Andropogon sorghum; details: 14 days after treatment
Description: as §1

ZEAMX (Corn) = experiment: Leaf treatment test, corn; type: in vivo, Zea mays L.; details: 14 days after treatment
Description: as §1

barnyard grass (ECHCG) = experiment: Experimental Example 2, herbicidal effect on barnyard grass ECHCG; type: in vivo, Eclzinocgloa crus-galli beauv. var. caudate Kitagawa; details: 1˜2 tillering, 200 g a.i per hactare on the leaves, Tech. 98%
Excerpt: (§3) Rice[Oryza sativa. L. cv.
(§4) The result is represented in the following table 8.

barnyard grass (ECHOR) = experiment: Experimental Example 2, herbicidal effect on barnyard grass ECHOR; type: in vivo, Ecliinocgloa crus-galli Beauv. var. orygicola Ohwi; details: 1˜2 tillering, 200 g a.i per hactare on the leaves, Tech. 98%
Excerpt: as §3, §4

Rice (ORYSA) = details: 6.0˜6.5 leaves, 200 g a.i per hactare on the leaves, Tech. 98%

With `CC(Oc1ccc(Oc2nc3ccc(Cl)cc3o2)cc1)C(=O)N(C)c1ccccc1F` (stereo not drawn) [Compound No. 1, 2-[4-(6-Chloro-2-benzoxazoyloxy)-phenoxy]propionic Acid-N-(2-fluorophenyl)-N-methylamide] the “degree of damage to the plants (% damage)” value (“degree … (% damage)” for short) (DIGSA (Large crabgrass); treated amount 0.025 kg/ha) was 100%, the “degree … (% damage)” value (DIGSA (Large crabgrass); treated amount 0.1 kg/ha) was 100% and the “degree … (% damage)” value (DIGSA (Large crabgrass); treated amount 0.4 kg/ha) was 100%. The “degree … (% damage)” value (rice; treated amount 0.016 kg/ha) was 0%, the “degree … (% damage)” value (rice; treated amount 0.063 kg/ha) was 0% and the “degree … (% damage)” value (rice; treated amount 0.25 kg/ha) was 0%. For the same compound, the “degree … (% damage)” value (rice; treated amount 1.0 kg/ha) was 0%, the “degree … (% damage)” value (PANDI (Fall panicum); treated amount 0.025 kg/ha) was 100% and the “degree … (% damage)” value (PANDI (Fall panicum); treated amount 0.1 kg/ha) was 100%. The “degree … (% damage)” value (PANDI (Fall panicum); treated amount 0.4 kg/ha) was 100%, the “degree … (% damage)” value (GOSHI (Cotton); treated amount 0.025 kg/ha) was 0% and the “degree … (% damage)” value (GOSHI (Cotton); treated amount 0.1 kg/ha) was 0%. For the same compound, the “degree … (% damage)” value (GOSHI (Cotton); treated amount 0.4 kg/ha) was 0%, the “degree … (% damage)” value (TRZAW (Wheat); treated amount 0.025 kg/ha) was 0% and the “degree … (% damage)” value (TRZAW (Wheat); treated amount 0.1 kg/ha) was 0%. The “degree … (% damage)” value (TRZAW (Wheat); treated amount 0.4 kg/ha) was 0%, the “degree … (% damage)” value (ECHCG (Barnyard grass); treated amount 0.025 kg/ha) was 90% and the “degree … (% damage)” value (ECHCG (Barnyard grass); treated amount 0.1 kg/ha) was 100%. For the same compound, the “degree … (% damage)” value (ECHCG (Barnyard grass); treated amount 0.4 kg/ha) was 100%, the “degree … (% damage)” value (Barnyard grass; treated amount 0.016 kg/ha) was 75% and the “degree … (% damage)” value (Barnyard grass; treated amount 0.063 kg/ha) was 100%. For the same compound, the “degree … (% damage)” value (Barnyard grass; treated amount 0.25 kg/ha) was 100%, the “degree … (% damage)” value (Barnyard grass; treated amount 1.0 kg/ha) was 100% and the “degree … (% damage)” value (ORYSA (Rice); treated amount 0.025 kg/ha) was 0%. The “degree … (% damage)” value (ORYSA (Rice); treated amount 0.1 kg/ha) was 0%, the “degree … (% damage)” value (ORYSA (Rice); treated amount 0.4 kg/ha) was 0% and the “degree … (% damage)” value (GLXMA (Soy bean); treated amount 0.025 kg/ha) was 0%. The “degree … (% damage)” value (GLXMA (Soy bean); treated amount 0.1 kg/ha) was 0%, the “degree … (% damage)” value (GLXMA (Soy bean); treated amount 0.4 kg/ha) was 20% and the “degree … (% damage)” value (SORBI (Common sorgum); treated amount 0.025 kg/ha) was 100%. For the same compound, the “degree … (% damage)” value (SORBI (Common sorgum); treated amount 0.1 kg/ha) was 100%, the “degree … (% damage)” value (SORBI (Common sorgum); treated amount 0.4 kg/ha) was 100% and the “degree … (% damage)” value (ZEAMX (Corn); treated amount 0.025 kg/ha) was 0%. The “degree … (% damage)” value (ZEAMX (Corn); treated amount 0.1 kg/ha) was 70% and the “degree … (% damage)” value (ZEAMX (Corn); treated amount 0.4 kg/ha) was 100%.
In the case of `CC(Oc1ccc(Oc2nc3ccc(Cl)cc3o2)cc1)C(=O)Nc1ccccc1F` (stereo not drawn) [control 1, 2-[4-(6-Chloro-2-benzoxazoyloxy)-phenoxy]propionic Acid-N-(2-fluorophenyl)amide, reference compound], the “degree … (% damage)” value (DIGSA (Large crabgrass); treated amount 0.025 kg/ha) is reported as 100%, the “degree … (% damage)” value (DIGSA (Large crabgrass); treated amount 0.1 kg/ha) is reported as 100% and the “degree … (% damage)” value (DIGSA (Large crabgrass); treated amount 0.4 kg/ha) is reported as 100%. The “activity (0˜100), 20 DAT ECHCG” value (barnyard grass (ECHCG)) was 100, the “degree … (% damage)” value (PANDI (Fall panicum); treated amount 0.025 kg/ha) was 100% and 95% and the “degree … (% damage)” value (PANDI (Fall panicum); treated amount 0.1 kg/ha) was 100%. For the same compound, the “degree … (% damage)” value (PANDI (Fall panicum); treated amount 0.4 kg/ha) was 100%, the “degree … (% damage)” value (GOSHI (Cotton); treated amount 0.025 kg/ha) was 0% and the “degree … (% damage)” value (GOSHI (Cotton); treated amount 0.1 kg/ha) was 0%. The “degree … (% damage)” value (GOSHI (Cotton); treated amount 0.4 kg/ha) was 0%, the “activity (0˜100), 20 DAT ECHOR” value (barnyard grass (ECHOR)) was 100 and the “degree … (% damage)” value (TRZAW (Wheat); treated amount 0.025 kg/ha) was 0%. The “degree … (% damage)” value (ECHCG (Barnyard grass); treated amount 0.025 kg/ha) was 100%, the “degree … (% damage)” value (ECHCG (Barnyard grass); treated amount 0.1 kg/ha) was 100% and the “degree … (% damage)” value (ECHCG (Barnyard grass); treated amount 0.4 kg/ha) was 100%. For the same compound, the “degree … (% damage)” value (ORYSA (Rice); treated amount 0.025 kg/ha) was 35% and 40%, the “degree … (% damage)” value (ORYSA (Rice); treated amount 0.1 kg/ha) was 50% and 70% and the “degree … (% damage)” value (ORYSA (Rice); treated amount 0.4 kg/ha) was 70% and 90%. The “degree … (% damage)” value (GLXMA (Soy bean); treated amount 0.025 kg/ha) was 0%, the “degree … (% damage)” value (GLXMA (Soy bean); treated amount 0.4 kg/ha) was 40% and 30% and the “degree … (% damage)” value (SORBI (Common sorgum); treated amount 0.025 kg/ha) was 100%. The “degree … (% damage)” value (SORBI (Common sorgum); treated amount 0.1 kg/ha) was 100%, the “degree … (% damage)” value (SORBI (Common sorgum); treated amount 0.4 kg/ha) was 100% and the “toxicity (0˜100) 20 DAT” value (Rice (ORYSA); 20 DAT) was 22. For the same compound, the “toxicity (0˜100) 30 DAT” value (Rice (ORYSA); 30 DAT) was 39, the “degree … (% damage)” value (ZEAMX (Corn); treated amount 0.025 kg/ha) was 100% and 80% and the “degree … (% damage)” value (ZEAMX (Corn); treated amount 0.1 kg/ha) was 100%. The “degree … (% damage)” value (ZEAMX (Corn); treated amount 0.4 kg/ha) was 100%.
